According to the supplement of paper PMC10307832:

Key:
Test in all cases: relative viability (nuclei count vs DMSO), 5 days (fraction); higher = more cells survive
A-427 = tested on: A-427
Summary of the method: (§1)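 One day after seeding in 1536-well plates, lung cancer cell lines were dosed by pin tool. Dosing was either single-drug or a fixed anchor-drug dose plus five library-drug doses (not always all listed) in √10 steps. After 5 days, nuclei were stained in one fix-and-stain step and counted on 4× images, and relative viability is the nuclei count of treated wells over that of vehicle wells, given as the median of duplicate plates.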

EMC-BAC-2 = tested on: EMC-BAC-2
Summary of the method: as §1

HARA = tested on: HARA
Summary of the method: as §1

HOP-62 = tested on: HOP-62
Summary of the method: as §1

LK-2 = tested on: LK-2
Summary of the method: as §1

LXF-289 = tested on: LXF-289
Summary of the method: as §1

NCI-H1792 = tested on: NCI-H1792
Summary of the method: as §1

NCI-H1944 = tested on: NCI-H1944
Summary of the method: as §1

NCI-H1993 = tested on: NCI-H1993
Summary of the method: as §1

NCI-H2009 = tested on: NCI-H2009
Summary of the method: as §1

NCI-H2170 = tested on: NCI-H2170
Summary of the method: as §1

NCI-H2228 = tested on: NCI-H2228
Summary of the method: as §1

NCI-H3122 = tested on: NCI-H3122
Summary of the method: as §1

NCI-H322M = tested on: NCI-H322M
Summary of the method: as §1

NCI-H522 = tested on: NCI-H522
Summary of the method: as §1

NCI-H596 = tested on: NCI-H596
Summary of the method: as §1

NCI-H727 = tested on: NCI-H727
Summary of the method: as §1

PC-3 [JPC-3] = tested on: PC-3 [JPC-3]
Summary of the method: as §1

SK-MES-1 = tested on: SK-MES-1
Summary of the method: as §1

SW 1573 = tested on: SW 1573
Summary of the method: as §1

SW 900 = tested on: SW 900
Summary of the method: as §1

O=c1cc(N2CCOCC2)oc2c(-c3cccc4c3sc3ccccc34)cccc12 + CC(=O)Nc1cccc(-n2c(=O)n(C3CC3)c(=O)c3c(Nc4ccc(I)cc4F)n(C)c(=O)c(C)c32)c1 [Trametinib] (partner 0.02 µM)
relative viability (A-427; first compound 0.01 µM): 0.869 | relative viability (A-427; first compound 0.03162 µM): 0.775 | relative viability (A-427; first compound 0.1 µM): 0.747 | relative viability (A-427; first compound 0.3162 µM): 0.812 | relative viability (A-427; first compound 1 µM): 0.695 | relative viability (EMC-BAC-2; first compound 0.01 µM): 0.976 | relative viability (EMC-BAC-2; first compound 0.03162 µM): 0.93 | relative viability (EMC-BAC-2; first compound 0.1 µM): 0.931 | relative viability (EMC-BAC-2; first compound 0.3162 µM): 0.774 | relative viability (EMC-BAC-2; first compound 1 µM): 0.865 | relative viability (HARA; first compound 0.01 µM): 0.377 | relative viability (HARA; first compound 0.03162 µM): 0.828 | relative viability (HARA; first compound 0.1 µM): 0.688 | relative viability (HARA; first compound 0.3162 µM): 0.621 | relative viability (HARA; first compound 1 µM): 0.649 | relative viability (HOP-62; first compound 0.01 µM): 0.379 | relative viability (HOP-62; first compound 0.03162 µM): 0.384 | relative viability (HOP-62; first compound 0.1 µM): 0.358 | relative viability (HOP-62; first compound 0.3162 µM): 0.385 | relative viability (HOP-62; first compound 1 µM): 0.373 | relative viability (LK-2; first compound 0.01 µM): 0.808 | relative viability (LK-2; first compound 0.03162 µM): 0.807 | relative viability (LK-2; first compound 0.1 µM): 0.957 | relative viability (LK-2; first compound 0.3162 µM): 0.515 | relative viability (LK-2; first compound 1 µM): 0.902 | relative viability (LXF-289; first compound 0.01 µM): 0.672 | relative viability (LXF-289; first compound 0.03162 µM): 0.629 | relative viability (LXF-289; first compound 0.1 µM): 0.662 | relative viability (LXF-289; first compound 0.3162 µM): 0.673 | relative viability (LXF-289; first compound 1 µM): 0.695 | relative viability (NCI-H1792; first compound 0.01 µM): 0.322 | relative viability (NCI-H1792; first compound 0.03162 µM): 0.445 | relative viability (NCI-H1792; first compound 0.3162 µM): 0.383 | relative viability (NCI-H1792; first compound 1 µM): 0.458 | relative viability (NCI-H1944; first compound 0.01 µM): 0.448 | relative viability (NCI-H1944; first compound 0.03162 µM): 0.403 | relative viability (NCI-H1944; first compound 0.1 µM): 0.396 | relative viability (NCI-H1944; first compound 0.3162 µM): 0.411 | relative viability (NCI-H1944; first compound 1 µM): 0.363 | relative viability (NCI-H1993; first compound 0.01 µM): 0.507 | relative viability (NCI-H1993; first compound 0.03162 µM): 0.601 | relative viability (NCI-H1993; first compound 0.1 µM): 0.507 | relative viability (NCI-H1993; first compound 0.3162 µM): 0.407 | relative viability (NCI-H1993; first compound 1 µM): 0.516 | relative viability (NCI-H2009; first compound 0.01 µM): 0.315 | relative viability (NCI-H2009; first compound 0.03162 µM): 0.294 | relative viability (NCI-H2009; first compound 0.1 µM): 0.255 | relative viability (NCI-H2009; first compound 0.3162 µM): 0.279 | relative viability (NCI-H2009; first compound 1 µM): 0.212 | relative viability (NCI-H2170; first compound 0.01 µM): 0.895 | relative viability (NCI-H2170; first compound 0.03162 µM): 0.897 | relative viability (NCI-H2170; first compound 0.1 µM): 0.982 | relative viability (NCI-H2170; first compound 0.3162 µM): 0.801 | relative viability (NCI-H2170; first compound 1 µM): 0.889 | relative viability (NCI-H2228; first compound 0.01 µM): 0.723 | relative viability (NCI-H2228; first compound 0.03162 µM): 0.424 | relative viability (NCI-H2228; first compound 0.1 µM): 0.43 | relative viability (NCI-H2228; first compound 0.3162 µM): 0.557 | relative viability (NCI-H2228; first compound 1 µM): 0.534 | relative viability (NCI-H3122; first compound 0.01 µM): 0.217 | relative viability (NCI-H3122; first compound 0.03162 µM): 0.225 | relative viability (NCI-H3122; first compound 0.1 µM): 0.245 | relative viability (NCI-H3122; first compound 0.3162 µM): 0.216 | relative viability (NCI-H3122; first compound 1 µM): 0.202 | relative viability (NCI-H322M; first compound 0.01 µM): 0.494 | relative viability (NCI-H322M; first compound 0.03162 µM): 0.486 | relative viability (NCI-H322M; first compound 0.3162 µM): 0.495 | relative viability (NCI-H322M; first compound 1 µM): 0.494 | relative viability (NCI-H522; first compound 0.01 µM): 0.733 | relative viability (NCI-H522; first compound 0.03162 µM): 0.86 | relative viability (NCI-H522; first compound 0.1 µM): 0.793 | relative viability (NCI-H522; first compound 0.3162 µM): 0.684 | relative viability (NCI-H522; first compound 1 µM): 0.963 | relative viability (NCI-H596; first compound 0.01 µM): 0.758 | relative viability (NCI-H596; first compound 0.03162 µM): 0.866 | relative viability (NCI-H596; first compound 0.1 µM): 0.831 | relative viability (NCI-H596; first compound 0.3162 µM): 0.711 | relative viability (NCI-H596; first compound 1 µM): 0.717 | relative viability (NCI-H727; first compound 0.01 µM): 0.38 | relative viability (NCI-H727; first compound 0.03162 µM): 0.372 | relative viability (NCI-H727; first compound 0.1 µM): 0.389 | relative viability (NCI-H727; first compound 0.3162 µM): 0.391 | relative viability (NCI-H727; first compound 1 µM): 0.37 | relative viability (PC-3 [JPC-3]; first compound 0.01 µM): 0.623 | relative viability (PC-3 [JPC-3]; first compound 0.03162 µM): 0.675 | relative viability (PC-3 [JPC-3]; first compound 0.1 µM): 0.649 | relative viability (PC-3 [JPC-3]; first compound 0.3162 µM): 0.729 | relative viability (PC-3 [JPC-3]; first compound 1 µM): 0.655 | relative viability (SK-MES-1; first compound 0.01 µM): 0.546 | relative viability (SK-MES-1; first compound 0.03162 µM): 0.533 | relative viability (SK-MES-1; first compound 0.1 µM): 0.518 | relative viability (SK-MES-1; first compound 0.3162 µM): 0.516 | relative viability (SK-MES-1; first compound 1 µM): 0.48 | relative viability (SW 1573; first compound 0.01 µM): 0.501 | relative viability (SW 1573; first compound 0.03162 µM): 0.594 | relative viability (SW 1573; first compound 0.1 µM): 0.585 | relative viability (SW 1573; first compound 0.3162 µM): 0.603 | relative viability (SW 1573; first compound 1 µM): 0.501 | relative viability (SW 900; first compound 0.03162 µM): 0.922 | relative viability (SW 900; first compound 0.1 µM): 0.949 | relative viability (SW 900; first compound 0.3162 µM): 0.858 | relative viability (SW 900; first compound 1 µM): 0.82
